From the COVID Moonshot data (paper PMC11187573), “Identification of SARS-CoV-2 Mpro inhibitors through deep reinforcement learning for de novo drug design and computational chemistry approaches” (RSC Medicinal Chemistry, 2024) come the findings set out here.

Data set [1] deals with SARS-CoV-2 Main Protease (SARS-CoV-2) (UniProt P0DTD1).
Procedure: Compounds were seeded into assay-ready plates (Greiner 384 low volume, cat 784900) using an Echo 555 acoustic dispenser, and DMSO was back-filled for a uniform concentration in assay plates (DMSO concentration maximum 1%) Screening assays were performed in duplicate at 20µM and 50µM. […] Dose response assays were performed in 12 point dilutions of 2-fold, typically beginning at 100µM. […] Reagents for Mpro assay were dispensed into the assay plate in 10µl volumes for a final volume of 20µL.
Mpro was pre-incubated for 15 minutes at room temperature with compound before addition of substrate and a further 30 minute incubation. Protease reaction was measured in a BMG Pherastar FS with a 480/520 ex/em filter set. Raw data was mapped and normalized to high (Protease with DMSO) and low (No Protease) controls using Genedata Screener software.
For data set [2] the target is unchanged. The source holds these as a separate data set.

On to `Cc1cc2c(cc1C)[C@H](C(=O)Nc1cncnc1-n1cccn1)CO2` (stereo in doubt), for which the relative solubility at 20 uM stood at 0.82 and the relative solubility at 100 uM worked out at 0.76. In data set [1] (20.0 µM), the inhibition was -1.2%. For the same molecule, in data set [1] (50.0 µM), the inhibition was -9.4%. Moreover, the inhibition in data set [2] (50.0 µM) is 0%.
`Cc1cc(Br)cc2c1N(CCBr)C(=O)C2=O`: the relative solubility at 20 uM turned out to be 1 and the relative solubility at 100 uM turned out to be 1. Besides, the inhibition in data set [1] (20.0 µM) is -3.94%. The inhibition in data set [1] (50.0 µM) is -4.22%. The molecule further gave a half-inhibitory concentration (IC50) in data set [2] of 16.7 µM. In addition, in data set [2] (50.0 µM), the inhibition worked out at 95.6%.
Molecule `C=CC(=O)N(c1ccc(N(C)C)c(C)c1)C(C(=O)Nc1ccc(OC)cc1)c1cccnc1` (configuration not stated) returned a relative solubility at 20 uM of 0.88 and a relative solubility at 100 uM of 0.77. Besides, the inhibition in data set [1] (20.0 µM) came to 2.56%. Besides, the inhibition in data set [1] (50.0 µM) is 7.05%. For the same molecule, the inhibition in data set [2] (20.0 µM) came to 0%. In data set [2] (50.0 µM), the inhibition was 2.05%.
With `C=CC(=O)N(c1ccc(C(C)(C)C)cc1)C(C(=O)NC(C)CC)c1cccnc1` (configuration not stated), the relative solubility at 20 uM was determined as 1 and the relative solubility at 100 uM amounted to 1. For the same molecule, the inhibition in data set [1] (20.0 µM) was 16.8%. The inhibition in data set [1] (50.0 µM) stood at 32.5%. For the same molecule, the inhibition in data set [2] (20.0 µM) was determined as 3.71%. Moreover, in data set [2] (50.0 µM), the inhibition turned out to be 23.9%.
Regarding `COc1ccc2nc(C)cc(C(=O)NN)c2c1`, the relative solubility at 20 uM came to 1 and the relative solubility at 100 uM was 1. Further, the inhibition in data set [1] (50.0 µM) is 22.2%. Besides, the inhibition in data set [2] (20.0 µM) was 0%. The inhibition in data set [2] (50.0 µM) was 0%.
In the case of `CC1CN(Cc2cccc(Cl)c2)CCN1C(=O)CCl` (configuration not stated), the relative solubility at 20 uM came to 0.99 and the relative solubility at 100 uM amounted to 0.99. Also, the inhibition in data set [1] (20.0 µM) was found to be 88.3%. Further, the inhibition in data set [1] (50.0 µM) came to 93.9%. In data set [2], the IC50 turned out to be 2.08 µM. In data set [2] (20.0 µM), the inhibition was determined as 94.6%. For the same molecule, the inhibition in data set [2] (50.0 µM) worked out at 100%.
`NC(=O)CCN(C(=O)CCl)C1CCS(=O)(=O)C1` (configuration not stated) gave a relative solubility at 20 uM of 1 and a relative solubility at 100 uM of 1. Also, in data set [1] (50.0 µM), the inhibition worked out at 18.6%. For the same molecule, the inhibition in data set [2] (20.0 µM) amounted to 16.3%. In data set [2] (50.0 µM), the inhibition stood at 34.1%.
Consider `NS(=O)(=O)c1ccc2c(c1)CN(CC1CCN(C(=O)CCl)CC1)CC2`, for which the relative solubility at 20 uM worked out at 1 and the relative solubility at 100 uM was 1. Further, in data set [1] (20.0 µM), the inhibition is 30.8%. For the same molecule, the inhibition in data set [1] (50.0 µM) was found to be 60.3%. This molecule also returned an IC50 in data set [2] of 31.2 µM. Further, in data set [2] (50.0 µM), the inhibition amounted to 91.1%.
For `Cc1ccc(S(=O)(=O)N2CCN(C(=O)c3cc(=O)[nH]c4cc(F)ccc34)CC2)c(C)c1`, the relative solubility at 20 uM was determined as 1 and the relative solubility at 100 uM amounted to 0.92. The inhibition in data set [1] (20.0 µM) worked out at 21.8%. In data set [1] (50.0 µM), the inhibition was found to be 48.1%. Moreover, in data set [2] (50.0 µM), the inhibition was determined as 11.4%.
With `CN(C)c1ccc(N(Cc2ccsc2)C(=O)Cn2nnc3ccccc32)cc1`, the relative solubility at 20 uM was determined as 0.92 and the relative solubility at 100 uM was determined as 0.48. Further, the inhibition in data set [1] (20.0 µM) stood at 84.4%. Also, the inhibition in data set [1] (50.0 µM) stood at 90.5%. For the same molecule, the IC50 in data set [2] worked out at 5.37 µM. Further, the inhibition in data set [2] (50.0 µM) was 90.3%.
Consider `Cc1noc(C)c1NC(=O)Cc1cccc(Cl)c1Cl`, for which the relative solubility at 20 uM is 1 and the relative solubility at 100 uM is 1. Further, the inhibition in data set [1] (20.0 µM) was -2.3%. Also, the inhibition in data set [1] (50.0 µM) is -6.85%. In data set [2] (50.0 µM), the inhibition amounted to 0%.
Molecule `COc1cccc2c1OCC(NC(=O)c1cc(=O)[nH]c3cc(F)ccc13)C2` (configuration not stated) yielded a relative solubility at 20 uM of 0.9 and a relative solubility at 100 uM of 0.86. Further, the inhibition in data set [1] (20.0 µM) was -1.01%. Further, the inhibition in data set [1] (50.0 µM) is -0.175%. The inhibition in data set [2] (50.0 µM) came to 0%.
On to `C[C@H](NC(=O)[C@@H](C)c1ccc(F)c(F)c1)c1cccc(F)c1` (stereo in doubt), for which the relative solubility at 20 uM is 1 and the relative solubility at 100 uM came to 0.79. In addition, in data set [1] (50.0 µM), the inhibition was -31.4%. For the same molecule, the inhibition in data set [2] (20.0 µM) was determined as 0%. Also, the inhibition in data set [2] (50.0 µM) was 0%.
Turning to `C=CC(=O)N(c1ccc(C2CCOC2)cc1)C(C(=O)NC(C)(C)C)c1cccnc1` (configuration not stated), the relative solubility at 20 uM amounted to 1.01 and the relative solubility at 100 uM amounted to 1.01. Besides, the inhibition in data set [1] (20.0 µM) was -11.9%. For the same molecule, the inhibition in data set [1] (50.0 µM) turned out to be 4.28%. The inhibition in data set [2] (20.0 µM) was determined as 0%.

What is called inhibition is the relative decrease from the control value, in per cent. The IC50 is the midpoint of a concentration-inhibition curve.
